{"source": "patent EP1222194B1", "about": "“7-ACYLAMINO-3-HETEROARYLTHIO-3-CEPHEM CARBOXYLIC ACID ANTIBIOTICS AND PRODRUGS THEREOF” (priority 1999, dated 2001)", "system": "S. aureus ATCC 13709 (Smith diffuse)", "assay": "Murine model for lethal bacteremic peritonitis (septicemia)", "type": "in vivo, mice", "settings": "Dose 5 mg/kg, subcutaneously at 0 and 2 hrs post-challenge", "procedure": "10 mice/group were injected intraperitoneally with 2.98x10^7 cfu S. aureus ATCC 13709 (Smith diffuse) and treated at 0 and 2hrs post-challenge with serial two-fold doses of new cephalosporin antibiotic, imipenem and vancomycin subcutaneously in order to determine the ED50. Male Swiss-Webster mice weighing originally 24.2 - 26.1 g were obtained from Charles Rivers Labs, Hollister, CA. Mice were housed 10 per cage and given free access to water and mouse chow.\nStaphylococcus aureus ATCC 13709 (Smith diffuse) was grown overnight at 37 °C in Brain-heart Infusion broth (BHIB). The following morning, it was subcultured to fresh BHIB and incubated for 4-5h at 37 °C. The log-phase growth cells were washed once with physiological saline and adjusted to the desired concentration by correlation of absorbency at OD 600 nm with predetermined plate counts (NCCLS, 1994). The cell suspension was mixed with an equal volume of sterile 14% hog-gastric mucin (2). Inoculum was kept in an ice bath until used (<1h).\nMice were challenged via an injection of 0.5 mL bacterial suspension intraperitoneally. The bacterial challenge was 2.98 x 10^7 cfu/mouse.\nImipenem (Primaxin IV; Lot 7294A), vancomycin (Vancocin; Lot 8MU60W), and new cephalosporin antibiotic were prepared by serial two-fold dilutions to concentrations of 0.078 - 0.005 mg/mL, 1.2 - 0.075 mg/mL, 0.3 - 0.02 mg/mL, 0.3 - 0.02 mg/mL and 0.3 - 0.02 mg/mL respectively in sterile water (1). All antibiotics were administered subcutaneously in 0.1 mL volumes at 0 and 2 hours post-challenge. Concentrations of all compounds are based on the weight of the bioactive ingredients.\nThe 50% effective dose (ED50) was calculated by the probit method (3) utilizing a program entitled Probit (Nycomed-Salutar)."}
{"smiles": "NCCSCc1ccncc1SC1=C(C(=O)O)N2C(=O)[C@@H](NC(=O)/C(=N\\O)c3nc(N)sc3Cl)[C@H]2SC1", "note": "[Cmpd 3, (7R)-7-[(Z)-2-(2-amino-5-chlorothiazol-4-yl)-2-(hydroxyimino)acetamido]-3-[4-(2-aminoethylthiomethyl)pyrid-3-ylthio]-3-cephem-4-carboxylic acid]", "values": [{"measurement": "Efficacy in murine septicemia %survival", "value": "5/80%"}]}
